Results reported in patent publication US20230111310A1, “CARBOXYLIC ACID DERIVATIVE-SUBSTITUTED IMINO ARYL COMPOUND, PREPARATION METHOD THEREFOR, HERBICIDAL COMPOSITION AND USE THEREOF” (Qingdao Kingagroot Chemical Compound Co., Ltd., priority 2020, published 2023).

Assays:
Format in all cases: in vivo
Abutilon theophrasti [1] = test: Weeding effect in post-emergence stage; details: Dose 15 g/ha; for Weeding effect in post-emergence stage, Abutilon theophrasti: level of fresh weight growth control rate
Method in brief: (§1)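 Pot-grown weeds were sprayed at the 2-3 leaf stage, 2 weeks after sowing, with compound in acetone plus Tween 80 and 1.5 liter/ha methyl oleate emulsifiable concentrate, diluted in water. Doses were 500, 250, 125, 60, 30, 15, 7.5 g/ha. Growth control was scored after 3 weeks in greenhouse; mean of three replicates.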

Alopecurus japonicus = test: Weeding effect in post-emergence stage; details: Dose 15 g/ha; for Weeding effect in post-emergence stage, Alopecurus japonicus: level of fresh weight growth control rate
Method in brief: as §1

Digitaria sanguinalis = test: Weeding effect in post-emergence stage; details: Dose 15 g/ha; for Weeding effect in post-emergence stage, Digitaria sanguinalis: level of fresh weight growth control rate
Method in brief: as §1

Eleusine indica = test: Weeding effect in post-emergence stage; details: Dose 15 g/ha; for Weeding effect in post-emergence stage, Eleusine indica: level of fresh weight growth control rate
Method in brief: as §1

Setaria viridis [2] = test: Weeding effect in post-emergence stage; details: Dose 15 g/ha; for Weeding effect in post-emergence stage, Setaria viridis: level of fresh weight growth control rate
Method in brief: as §1

Echinochloa crusgalli = test: Weeding effect in post-emergence stage; details: Dose 15 g/ha; for Weeding effect in post-emergence stage, Echinochloa crusgalli: level of fresh weight growth control rate
Method in brief: as §1

Abutilon theophrasti [3] = test: Weeding effect in pre-emergence stage; details: 30 g/ha, 4 weeks
Method in brief: (§2)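 Test compounds were dissolved in acetone with tween 80, diluted with water and sprayed right after sowing, with seeds covered by 0.5-2 cm of soil. Rates were 500 to 7.5 g/ha. Growth control was scored against activity-level criteria after 4 weeks in the greenhouse.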

Amaranthus retroflexus = test: Weeding effect in pre-emergence stage; details: 30 g/ha, 4 weeks
Method in brief: as §2

Capsella bursa-pastoris = test: Weeding effect in pre-emergence stage; details: 30 g/ha, 4 weeks
Method in brief: as §2

Descurainia sophia = test: Weeding effect in pre-emergence stage; details: 30 g/ha, 4 weeks
Method in brief: as §2

Setaria viridis [4] = test: Weeding effect in pre-emergence stage; details: 30 g/ha, 4 weeks
Method in brief: as §2

Veronica didyma Tenore = test: Weeding effect in pre-emergence stage; details: 30 g/ha, 4 weeks
Method in brief: as §2

Peanut = test: Pre-emergence stage, crop selectivity; details: 30 g/ha, 4 weeks
Method in brief: as §2

Soybeans = test: Pre-emergence stage, crop selectivity; details: 30 g/ha, 4 weeks
Method in brief: as §2

corn = test: Pre-emergence stage, crop selectivity; details: 30 g/ha, 4 weeks
Method in brief: as §2

cotton = test: Pre-emergence stage, crop selectivity; details: 30 g/ha, 4 weeks
Method in brief: as §2

[5] = fresh weight control rate level

Row | SMILES | Weeding effect in post-emergence stage, Abutilon theophrasti (Abutilon theophrasti [1]) | Weeding effect in post-emergence stage, Alopecurus japonicus (Alopecurus japonicus) | Weeding effect in post-emergence stage, Digitaria sanguinalis (Digitaria sanguinalis) | Weeding effect in post-emergence stage, Eleusine indica (Eleusine indica) | Weeding effect in post-emergence stage, Setaria viridis (Setaria viridis [2]) | Weeding effect in post-emergence stage, Echinochloa crusgalli (Echinochloa crusgalli) | activity level (growth control rate) Abutilon theophrasti (Abutilon theophrasti [3]) | activity level (growth control rate) Amaranthus retroflexus (Amaranthus retroflexus) | activity level (growth control rate) Capsella bursa-pastoris (Capsella bursa-pastoris) | activity level (growth control rate) Descurainia sophia (Descurainia sophia) | activity level (growth control rate) Setaria viridis (Setaria viridis [4]) | activity level (growth control rate) Veronica didyma Tenore (Veronica didyma Tenore) | plant damage level Peanut (Peanut) | plant damage level Soybeans (Soybeans) | plant damage level Corn (corn) | plant damage level Cotton (cotton) | also measured
1 | COC[C@@H](O/N=C/c1cc(-n2c(=O)cc(C(F)(F)F)n(C)c2=O)c(F)cc1Cl)C(=O)OC [333(R)] | 5 (Level 5: growth control rate is above 85%) | 5 (Level 5: growth control rate is above 85%) | 5 (Level 5: growth control rate is above 85%) | 5 (Level 5: growth control rate is above 85%) | 5 (Level 5: growth control rate is above 85%) | 5 (Level 5: growth control rate is above 85%) | 5 (Level 5: growth control rate is above 85%) | 5 (Level 5: growth control rate is above 85%) | 5 (Level 5: growth control rate is above 85%) | 5 (Level 5: growth control rate is above 85%) | 5 (Level 5: growth control rate is above 85%) | 5 (Level 5: growth control rate is above 85%) | 0 (Level 0: growth control rate is less than 5%) | 0 (Level 0: growth control rate is less than 5%) | 0 (Level 0: growth control rate is less than 5%) | 0 (Level 0: growth control rate is less than 5%) | –
2 | C=CCOC(=O)[C@@H](C)O/N=C/c1cc(-n2c(=O)cc(C(F)(F)F)n(C)c2=O)c(F)cc1Cl [208(R)] | 5 (Level 5: growth control rate is above 85%) | 5 (Level 5: growth control rate is above 85%) | 5 (Level 5: growth control rate is above 85%) | 5 (Level 5: growth control rate is above 85%) | 5 (Level 5: growth control rate is above 85%) | 5 (Level 5: growth control rate is above 85%) | 5 (Level 5: growth control rate is above 85%) | 5 (Level 5: growth control rate is above 85%) | 5 (Level 5: growth control rate is above 85%) | 5 (Level 5: growth control rate is above 85%) | 5 (Level 5: growth control rate is above 85%) | 5 (Level 5: growth control rate is above 85%) | 0 (Level 0: growth control rate is less than 5%) | 0 (Level 0: growth control rate is less than 5%) | 0 (Level 0: growth control rate is less than 5%) | 0 (Level 0: growth control rate is less than 5%) | –
3 | CCCOC(=O)[C@@H](C)O/N=C/c1cc(-n2c(=O)cc(C(F)(F)F)n(C)c2=O)c(F)cc1Cl [198(R)] | 5 (Level 5: growth control rate is above 85%) | 5 (Level 5: growth control rate is above 85%) | 5 (Level 5: growth control rate is above 85%) | 5 (Level 5: growth control rate is above 85%) | 5 (Level 5: growth control rate is above 85%) | 5 (Level 5: growth control rate is above 85%) | 5 (Level 5: growth control rate is above 85%) | 5 (Level 5: growth control rate is above 85%) | 5 (Level 5: growth control rate is above 85%) | 5 (Level 5: growth control rate is above 85%) | 5 (Level 5: growth control rate is above 85%) | 5 (Level 5: growth control rate is above 85%) | 0 (Level 0: growth control rate is less than 5%) | 0 (Level 0: growth control rate is less than 5%) | 0 (Level 0: growth control rate is less than 5%) | 0 (Level 0: growth control rate is less than 5%) | –
4 | COC/C(C)=N/OC(=O)[C@@H](C)O/N=C/c1cc(-n2c(=O)cc(C(F)(F)F)n(C)c2=O)c(F)cc1Cl [253(R)] | 5 (Level 5: growth control rate is above 85%) | 5 (Level 5: growth control rate is above 85%) | 5 (Level 5: growth control rate is above 85%) | 5 (Level 5: growth control rate is above 85%) | 5 (Level 5: growth control rate is above 85%) | 5 (Level 5: growth control rate is above 85%) | 5 (Level 5: growth control rate is above 85%) | 5 (Level 5: growth control rate is above 85%) | 5 (Level 5: growth control rate is above 85%) | 5 (Level 5: growth control rate is above 85%) | 5 (Level 5: growth control rate is above 85%) | 5 (Level 5: growth control rate is above 85%) | 0 (Level 0: growth control rate is less than 5%) | 0 (Level 0: growth control rate is less than 5%) | 0 (Level 0: growth control rate is less than 5%) | 0 (Level 0: growth control rate is less than 5%) | –
5 | CCSC(=O)[C@@H](C)O/N=C/c1cc(-n2c(=O)cc(C(F)(F)F)n(C)c2=O)c(F)cc1Cl [398(R)] | – | – | – | – | – | – | 5 (Level 5: growth control rate is above 85%) | 5 (Level 5: growth control rate is above 85%) | 5 (Level 5: growth control rate is above 85%) | 5 (Level 5: growth control rate is above 85%) | 5 (Level 5: growth control rate is above 85%) | 5 (Level 5: growth control rate is above 85%) | 0 (Level 0: growth control rate is less than 5%) | 0 (Level 0: growth control rate is less than 5%) | 0 (Level 0: growth control rate is less than 5%) | 0 (Level 0: growth control rate is less than 5%) | Weeding effect in post-emergence stage, Abutilon theophrasti (level) (Abutilon theophrasti [1]; [5]): 5 (Level 5: growth control rate is above 85%); Weeding effect in post-emergence stage, Alopecurus japonicus (level) (Alopecurus japonicus; [5]): 5 (Level 5: growth control rate is above 85%); Weeding effect in post-emergence stage, Digitaria sanguinalis (level) (Digitaria sanguinalis; [5]): 5 (Level 5: growth control rate is above 85%); Weeding effect in post-emergence stage, Eleusine indica (level) (Eleusine indica; [5]): 5 (Level 5: growth control rate is above 85%); Weeding effect in post-emergence stage, Setaria viridis (level) (Setaria viridis [2]; [5]): 5 (Level 5: growth control rate is above 85%); Weeding effect in post-emergence stage, Echinochloa crusgalli (level) (Echinochloa crusgalli; [5]): 5 (Level 5: growth control rate is above 85%)
6 | C[C@@H](O/N=C/c1cc(-n2c(=O)cc(C(F)(F)F)n(C)c2=O)c(F)cc1Cl)C(=O)ON=C1CCCC1 [258(R)] | 5 (Level 5: growth control rate is above 85%) | 4 (Level 4: growth control rate is greater than or equal to 60% and less than 85%) | 5 (Level 5: growth control rate is above 85%) | 5 (Level 5: growth control rate is above 85%) | 5 (Level 5: growth control rate is above 85%) | 5 (Level 5: growth control rate is above 85%) | 5 (Level 5: growth control rate is above 85%) | 5 (Level 5: growth control rate is above 85%) | 5 (Level 5: growth control rate is above 85%) | 5 (Level 5: growth control rate is above 85%) | 5 (Level 5: growth control rate is above 85%) | 5 (Level 5: growth control rate is above 85%) | 0 (Level 0: growth control rate is less than 5%) | 0 (Level 0: growth control rate is less than 5%) | 0 (Level 0: growth control rate is less than 5%) | 0 (Level 0: growth control rate is less than 5%) | –
